Reference: article PMC2673211, “Nitric oxide activates ATP-sensitive potassium channels in mammalian sensory neurons: action by direct S-nitrosylation” (Molecular Pain, 2009)

Target: T1, KATP channels in large DRG neurons (Rattus norvegicus, UniProt P70673+Q09429)
T1 construct: native KATP channels in large DRG neurons; endogenous in cells; host or cells: acutely dissociated large-diameter neurons from rat L4/L5 dorsal root ganglia (sham-operated or spinal nerve ligated animals)
Test: Excised inside-out (cell-free) patch-clamp recording of KATP channel activity
Format: biochemical
Settings: SS neurons; for direct effect on KATP channel in inside-out patches: n = 6
Description: We harvested control (L4 and L5) or axotomized (L5) ganglia, from control (SS) or hyperalgesic rats (SNL) respectively, between the 17th and 28th postoperative days. We sacrificed animals by decapitation under deep isoflurane anesthesia, excised ganglia through a lumbar incision, and at the same time confirmed accuracy of initial surgery.
For patch-clamp recordings, we placed excised DRG into separate 35 mm Petri dishes containing cold, oxygenated, Hanks Balanced Salt Solution (Gibko, Invitrogen, Grand Islan, NY), and minced them with iris scissors. We dissociated ganglia enzymatically in a solution containing 0.25 ml 0.05% w:v liberase blendzyme 2 (Roche Diagnostics Corp., Indianapolis, IN) and 0.25 ml DMEM/F12 with glutaMAX (Dulbecco's modified Eagle's medium F12; Gibco, Invitrogen Corp., Carlsbad, CA) in an incubator at 37°C for 30 min. We then removed the supernatant after centrifugation and re-incubated cells at 37°C for another 30 min in 0.2 ml 0.0625% trypsin (Sigma, St. Louis, MO) and 0.0125% deoxyribonuclease 1 (150,000 U, Sigma, St. Louis, MO) in 0.25 ml DMEM. We then isolated cells by centrifugation (600 rpm for 5 min) after adding 0.25 ml trypsin inhibitor 0.1% w:v (Sigma St. Louis, MO), and re-suspended them in a culture medium consisting of 0.5 mM glutamine, 0.02 mg/ml gentamicin (Gibco, Invitrogen Corp., Carlsbad, CA), 100 ng/ml nerve growth factor 7S (Alomone Labs, Jerusalem, Israel), 2% (vol/vol) B-27 supplement (Gibco, Invitrogen Corp., Carlsbad, CA), and 98% (vol/vol) neural basal medium A (Gibco, Invitrogen Corp., Carlsbad, CA). Finally, we plated cells onto poly-l-lysine-coated 12-mm glass coverslips (Deutsche Spiegelglas; Carolina Biologic Supply, Burlington, NC), kept them in a humidified incubator at 37°C with 95% air and 5% CO2, and studied them within 3–8 h of dissociation.
We visualized plated neurons using an inverted Nikon Diaphot 300 microscope with Hoffman modulation optic system. We selected only large diameter neuronal somata (≥ 40 μm in diameter) because we have previously shown that only these develop KATP current alterations, as well as changes indicative of increased excitability after painful-like nerve injury by SNL [74]. Large neuronal somata, roughly correspond to large, myelinated Aβ fibers.
We recorded current passing through single channels in inside-out or cell-attached patch configurations. In cell-attached patches, both bath and pipette (extracellular) solutions were composed of the following: 140 mM KCl, 10 mM HEPES, 5.5 mM dextrose, and 1 mM EGTA. In inside-out patches, the bath (intracellular) solution contained 140 mM KCl, 1.2 mM MgCl2, 10 mM HEPES, 1.5 mM EGTA and 5.5 mM dextrose. The pipette (extracellular) solution was of the same composition as that used in cell-attached recordings. The pH of all solutions was adjusted to 7.4 with KOH. Osmolality was adjusted approximately to 300 mOsm/l by adding sucrose if necessary. We pulled patch micropipettes from borosilicate glass capillaries using a Flaming/Brown micropipette puller, model P-97 (Sutter, San Rafael, CA) and flame polished them with a microforge polisher (Narishige, Tokyo, Japan) prior to use. Their resistance ranged between 3 and 6 MΩ when filled with the internal solution, and placed into the recording solutions.
We recorded single channel currents at room temperature (20–25°C) using an Axon CNS Multiclamp 700B amplifier, digitized them using an analog-to-digital converter (Axon CNS DigiData 1440A; Axon Instruments, Foster, CA), and stored them into a PC. Sampling frequency of single-channel data was 5 KHz with a low-pass filter (1 KHz). We used pClamp version 10.2 software (Axon Instruments) for data acquisition and analysis. We applied a conventional 50% current amplitude threshold level criterion to determine open events. Channel open probability (Po) was determined from the ratios of the area under the peaks in the amplitude histograms fitted by a Gaussian distribution. […]

T1 sequence (Q09429 whole entry): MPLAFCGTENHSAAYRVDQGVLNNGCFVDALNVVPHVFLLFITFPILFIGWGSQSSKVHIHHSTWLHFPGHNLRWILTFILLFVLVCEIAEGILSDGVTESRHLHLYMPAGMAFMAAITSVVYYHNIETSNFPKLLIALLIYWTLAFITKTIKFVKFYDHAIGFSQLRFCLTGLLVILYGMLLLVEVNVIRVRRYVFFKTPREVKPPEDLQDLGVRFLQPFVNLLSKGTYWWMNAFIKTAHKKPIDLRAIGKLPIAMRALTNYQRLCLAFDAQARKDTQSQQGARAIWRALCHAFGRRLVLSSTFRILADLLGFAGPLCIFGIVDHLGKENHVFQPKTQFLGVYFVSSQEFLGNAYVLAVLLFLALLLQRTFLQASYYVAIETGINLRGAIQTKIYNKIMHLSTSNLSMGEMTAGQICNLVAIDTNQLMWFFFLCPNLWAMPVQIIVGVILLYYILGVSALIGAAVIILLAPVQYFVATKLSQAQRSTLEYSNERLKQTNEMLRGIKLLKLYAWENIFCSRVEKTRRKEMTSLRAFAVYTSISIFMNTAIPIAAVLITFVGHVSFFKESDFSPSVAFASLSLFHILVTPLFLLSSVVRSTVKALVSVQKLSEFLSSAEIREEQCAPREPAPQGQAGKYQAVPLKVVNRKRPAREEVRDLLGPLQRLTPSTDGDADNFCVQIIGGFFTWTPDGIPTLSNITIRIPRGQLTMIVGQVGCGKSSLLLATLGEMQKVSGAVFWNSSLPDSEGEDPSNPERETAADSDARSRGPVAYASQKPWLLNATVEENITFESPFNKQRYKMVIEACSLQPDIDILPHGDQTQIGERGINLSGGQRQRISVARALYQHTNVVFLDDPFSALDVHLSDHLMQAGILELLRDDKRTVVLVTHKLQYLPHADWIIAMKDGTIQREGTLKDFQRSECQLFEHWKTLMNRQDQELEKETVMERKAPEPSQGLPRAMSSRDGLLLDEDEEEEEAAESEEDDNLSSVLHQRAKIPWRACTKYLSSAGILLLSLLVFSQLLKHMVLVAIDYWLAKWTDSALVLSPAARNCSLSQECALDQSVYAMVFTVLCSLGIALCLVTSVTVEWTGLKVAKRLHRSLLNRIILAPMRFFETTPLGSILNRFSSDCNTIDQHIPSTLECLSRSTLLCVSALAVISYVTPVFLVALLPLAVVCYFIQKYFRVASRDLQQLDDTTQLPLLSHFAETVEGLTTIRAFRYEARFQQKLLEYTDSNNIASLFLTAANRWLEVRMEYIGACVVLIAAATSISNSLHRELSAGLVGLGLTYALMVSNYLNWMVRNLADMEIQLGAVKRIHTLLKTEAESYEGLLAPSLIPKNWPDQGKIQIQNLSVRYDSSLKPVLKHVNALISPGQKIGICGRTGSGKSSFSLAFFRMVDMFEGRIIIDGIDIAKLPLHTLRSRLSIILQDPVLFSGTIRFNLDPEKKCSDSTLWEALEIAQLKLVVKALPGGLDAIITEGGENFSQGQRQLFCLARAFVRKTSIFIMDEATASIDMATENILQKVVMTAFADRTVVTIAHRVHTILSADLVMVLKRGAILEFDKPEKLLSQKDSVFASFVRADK
T1 sequence (P70673 whole entry): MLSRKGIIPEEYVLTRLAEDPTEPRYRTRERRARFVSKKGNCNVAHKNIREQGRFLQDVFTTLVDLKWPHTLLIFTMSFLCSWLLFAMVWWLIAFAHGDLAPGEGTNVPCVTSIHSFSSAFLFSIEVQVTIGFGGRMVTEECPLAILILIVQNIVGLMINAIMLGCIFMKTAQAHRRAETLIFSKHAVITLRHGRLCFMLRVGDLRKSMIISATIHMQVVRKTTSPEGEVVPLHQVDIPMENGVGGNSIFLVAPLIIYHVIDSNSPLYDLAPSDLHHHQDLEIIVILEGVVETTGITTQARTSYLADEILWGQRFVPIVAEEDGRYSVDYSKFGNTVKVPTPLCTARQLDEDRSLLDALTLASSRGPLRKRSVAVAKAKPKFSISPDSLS

- direct effect on KATP channel in inside-out patches (SNAP 100 μM in the presence of 1 mM [ATP]i): gradually activated
- baseline current amplitude and conductance of channels (patch exposure to 100 μM SNAP, n = 5): remained unchanged
Substance: S-nitroso-N-acetylpenicillamine [SNAP]
- direct effect on KATP channel in inside-out patches (SNAP 100 μM in the presence of 10 μM [ATP]i): did not produce any significant channel activation
